Data reported in patent publication US20240269073A1, “CO-AMORPHOUS FORMS FOR USE IN CANCER THERAPY” (Zerion Pharma APS, priority 2021, published 2024).

Assays:
[1] = cited from earlier work
prostate cancer = settings: cited from earlier work
high-risk mCSPC = settings: cited from earlier work
[2] = equivalent glucocorticoid dose; cited from earlier work
[3] = test system: plasma proteins, primarily albumin; settings: cited from earlier work
[4] = Chemical compatibility of Olaparib with prednisolone on storage; type: physicochemical; settings: Olaparib and Prednisolone combined, 1 month in sealed containers at 40° C. and 75% RH
Procedure: An experiment was carried out to determine whether Olaparib is chemically compatible with prednisolone, both alone and in the co-amorphous form.

[5] = test system: prostate cancer with mutations in DNA repair genes; settings: cited from earlier work
[6] = cited from earlier work; remark: listed apart in the source

In the case of `CC(=O)O[C@H]1CC[C@@]2(C)C(=CC[C@@H]3[C@@H]2CC[C@]2(C)C(c4cccnc4)=CC[C@@H]32)C1` [Abiraterone acetate, [(3S,8R,9S,10R,13S,14S)-10,13-dimethyl-17-pyridin-3-yl-2,3,4,7,8,9,11,12,14,15-decahydro-1H-cyclopenta[a]phenanthren-3-yl] acetate], the water solubility [1] is given as “less than 1 mg/mL”, the “HR for survival vs ADT-alone group” value (prostate cancer; P<0.001) is given as 0.63 and the 3-year survival rate (prostate cancer; in vivo) is given as 83%. For the same compound, the mOS (high-risk mCSPC; 1000 mg daily with prednisone 5 mg twice daily and GnRH agonist/antagonist) was 53.3 months, the mPFS (high-risk mCSPC; 1000 mg daily with prednisone and GnRH agonist/antagonist) was 33.0 months and the “HR for mPFS vs placebo group” value (high-risk mCSPC; 95% CI, 0.39-0.55, P<0.001) was 0.47. The “HR for mOS vs placebo arm” value (high-risk mCSPC; P<0.001) was 0.62.

For `CC(=O)OCC(=O)[C@@]1(O)CC[C@H]2[C@@H]3CCC4=CC(=O)CC[C@]4(C)[C@H]3C(=O)C[C@@]21C` [Cortisone acetate], the Equivalent amount [2] is listed as 25 mg.

In the case of `CNC(=O)c1ccc(N2C(=S)N(c3ccc(C#N)c(C(F)(F)F)c3)C(=O)C2(C)C)cc1F` [Enzalutamide, 4-[3-[4-cyano-3-(trifluoromethyl)phenyl]-5,5-dimethyl-4-oxo-2-sulfanylideneimidazolidin-1-yl]-2-fluoro-N-methylbenzamide], the water solubility [1] is given as “less than 1 mg/mL”.

For `C[C@]12CCC(=O)C=C1CC[C@@H]1[C@@H]2[C@@H](O)C[C@@]2(C)[C@H]1CC[C@]2(O)C(=O)CO` [Hydrocortisone], the Equivalent amount [2] is listed as 20 mg.

For `CC1(C)C(=O)N(c2ccc(C#N)c(C(F)(F)F)c2)C(=S)N1c1ccc(C(N)=O)c(F)c1` [N-desmethyl enzalutamide], the “bound to plasma proteins” value [3] is given as 95%.

For `O=C(c1cc(Cc2n[nH]c(=O)c3ccccc23)ccc1F)N1CCN(C(=O)C2CC2)CC1` [Olaparib], the water solubility [1] is given as “about 0.06 mg/mL”, the “Degradation on combined storage” value [4] is given as “No degradations” and the “median time lived without evidence of cancer getting worse” value ([5]; cohort A (BRCA1, BRCA2 or ATM alterations)) is given as 7.4 months. The “improvement of survival versus control” value ([5]; cohort A, versus abiraterone or enzalutamide) was “more than 4 months”, the overall survival ([5]; cohort A) was 19.1 months and the “tumor response (tumors shrink)” value ([5]; in vivo) was 33%. For the same compound, the administered dose recovered ([6]; after 7 days, total) was “approximately 86%”, the “administered dose found in urine” value ([6]; after 7 days) was 44% and the “administered dose obtained in feces” value ([6]; after 7 days) was 42%. The AUC ([6]; after a dose of 200 mg) was 25.8 µg·h/mL, the “increase of AUC with constant administration” value ([6]; constant administration) was 26% and the “time to peak concentration” value ([6]; following oral administration) was 1 to 3 h. For the same compound, the “effect of high-fat diet on peak concentration” value ([6]; high-fat diet) was “does not have an effect in the peak concentration”, the “effect of high-fat diet on tmax” value ([6]; high-fat diet) was “can decrease the tmax” and the “unchanged form, share of the circulating dose” value ([6]; in vivo) was 70%.

For `C[C@@H]1C[C@H]2[C@@H]3C[C@H](F)C4=CC(=O)C=C[C@]4(C)[C@H]3[C@@H](O)C[C@]2(C)[C@@]1(O)C(=O)CO` [Paramethasone], the Equivalent amount [2] is listed as 2 mg.

In the case of `C[C@]12C=CC(=O)C=C1CC[C@@H]1[C@@H]2[C@@H](O)C[C@@]2(C)[C@H]1CC[C@]2(O)C(=O)CO` [Prednisolone], the Equivalent amount [2] is listed as 5 mg and the “Degradation on combined storage” value [4] is listed as “No degradations”.

For `C[C@]12C=CC(=O)C=C1CC[C@H]1[C@@H]3C[C@@H](O)[C@](O)(C(=O)CO)[C@@]3(C)C[C@H](O)[C@@]12F` [Triamcinolone], the Equivalent amount [2] is listed as 4 mg.
